Measured values published in patent publication US9399636B2, “Substituted dipyridylamines and uses thereof” (Genentech, Inc., priority 2012, dated 2016).

molecular target: T1, DLK (Homo sapiens, UniProt Q12852); test: DLK TR-FRET assay; format: biochemical; settings: 5 nM GST-tagged DLK (catalytic domain amino acid 1-520), 40 nM HIS-tagged MKK4 K131M substrate, 30 μM ATP, 60 minutes
T1 construct: N-terminally GST-tagged DLK (catalytic domain amino acid 1-520) (Carna Bioscience); GST (N); purchased Carna Bioscience
T1 sequence (Q12852 1-520): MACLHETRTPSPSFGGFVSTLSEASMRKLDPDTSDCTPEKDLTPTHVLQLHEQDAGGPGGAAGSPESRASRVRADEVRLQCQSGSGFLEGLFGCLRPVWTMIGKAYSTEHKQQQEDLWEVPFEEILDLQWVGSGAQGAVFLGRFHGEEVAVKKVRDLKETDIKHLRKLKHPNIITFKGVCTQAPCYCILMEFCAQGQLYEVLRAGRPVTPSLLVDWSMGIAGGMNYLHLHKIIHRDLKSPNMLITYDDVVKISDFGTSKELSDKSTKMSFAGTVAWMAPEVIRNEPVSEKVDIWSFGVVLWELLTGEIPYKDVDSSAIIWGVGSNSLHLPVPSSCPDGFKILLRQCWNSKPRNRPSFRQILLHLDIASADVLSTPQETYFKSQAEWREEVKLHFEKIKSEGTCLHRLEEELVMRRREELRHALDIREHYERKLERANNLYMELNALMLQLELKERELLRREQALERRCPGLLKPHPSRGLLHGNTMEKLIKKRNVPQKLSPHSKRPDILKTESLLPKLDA
How it was run: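 5 nM GST-tagged DLK catalytic domain (aa 1-520) with 40 nM HIS-MKK4 K131M substrate and 30 μM ATP in HEPES pH 7.5/MgCl2 buffer. Compounds tested in 1:3 serial dilution from 20 uM, 60 min at ambient temperature. EDTA quench, then 3 h with Eu-anti-phospho-MKK4 and D2-anti-HIS before TR-FRET read (665/615 nm).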

| SMILES | Ki [nM] |
| --- | --- |
| Cc1ccc(Nc2cc(C3CCN(C(=O)C4CCCCC4)CC3)ccn2)nc1 [Example 145, cyclohexyl(4-(2-((5-methylpyridin-2-yl)amino)pyridin-4-yl)piperidin-1-yl)methanone] | 3600 |
| FC(F)(F)c1ccnc(Nc2cc(C3CCN(C4COC4)CC3)ccn2)c1 [Example 120, (1′-Oxetan-3-yl-1′,2′,3′,4′,5′,6′-hexahydro-[4,4′]bipyridinyl-2-yl)-(4-trifluoromethyl-pyridin-2-yl)-amine] | 170 |
| N#Cc1ccnc(Nc2cc(C3(C#N)CCOCC3)cc(N3CCC(F)(F)C3)n2)c1 [Example 61, 2-[4-(4-Cyano-tetrahydro-pyran-4-yl)-6-(3,3-difluoro-pyrrolidin-1-yl)-pyridin-2-ylamino]-isonicotinonitrile] | 4.7 |
| N#Cc1ccnc(Nc2cc(C3CCN(C4COC4)CC3)cc(N3CCC[C@@H]3C(F)(F)F)n2)c1 [Example 70, 2-[1′-Oxetan-3-yl-6-((R)-2-trifluoromethyl-pyrrolidin-1-yl)-1′,2′,3′,4′,5′,6′-hexahydro-[4,4′]bipyridinyl-2-ylamino]-isonicotinonitrile] | 1.8 |
| CC(=O)N1CCC(c2cc(Nc3cc(C(F)(F)F)ccn3)nc(N3CCC(F)(F)C3)c2)CC1 [Example 143, 1-[2′-(3,3-Difluoro-pyrrolidin-1-yl)-6′-(4-trifluoromethyl-pyridin-2-ylamino)-3,4,5,6-tetrahydro-2H-[4,4′]bipyridinyl-1-yl]-ethanone] | 1.2 |
| C[C@@H]1CCCN1c1cc(C2CCN(C3COC3)CC2)cc(Nc2cc(C(F)F)ccn2)n1 [Example 68, (4-Difluoromethyl-pyridin-2-yl)-[6-((R)-2-methyl-pyrrolidin-1-yl)-1′-oxetan-3-yl-1′,2′,3′,4′,5′,6′-hexahydro-[4,4′]bipyridinyl-2-yl]-amine] | 0.3 |
| Cc1cc(C2CCN(C3COC3)CC2)cc(Nc2cc(C(F)F)ccn2)n1 [Example 27, (4-Difluoromethyl-pyridin-2-yl)-(6-methyl-1′-oxetan-3-yl-1′,2′,3′,4′,5′,6′-hexahydro-[4,4′]bipyridinyl-2-yl)-amine] | 100 |
| N#CC1(c2cc(Nc3cc(C(F)F)ccn3)nc(N3CCCC3=O)c2)CCOCC1 [Example 49, 4-[2-(4-Difluoromethyl-pyridin-2-ylamino)-6-(2-oxo-pyrrolidin-1-yl)-pyridin-4-yl]-tetrahydro-pyran-4-carbonitrile] | 19 |
| N#Cc1ccnc(Nc2cc(C3CCN(C4COC4)CC3)cc(N3CC4(CCC4(F)F)C3)n2)c1 [Example 94, 2-[6-(5,5-Difluoro-2-aza-spiro[3.3]hept-2-yl)-1′-oxetan-3-yl-1′,2′,3′,4′,5′,6′-hexahydro-[4,4′]bipyridinyl-2-ylamino]-isonicotinonitrile] | 4.1 |
| N#Cc1ccnc(Nc2cc(C3CCN(C4COC4)CC3)cc(N3CC(F)C3)n2)c1 [Example 91, 2-[6-(3-Fluoro-azetidin-1-yl)-1′-oxetan-3-yl-1′,2′,3′,4′,5′,6′-hexahydro-[4,4′]bipyridinyl-2-ylamino]-isonicotinonitrile] | 6.7 |
| N#CC1(c2cc(Nc3cc(C(F)F)ccn3)nc(N3CCC(F)(F)C3)c2)CCOCC1 [Example 56, 4-[2-(4-Difluoromethyl-pyridin-2-ylamino)-6-(3,3-difluoro-pyrrolidin-1-yl)-pyridin-4-yl]-tetrahydro-pyran-4-carbonitrile] | 2.1 |
| N#Cc1ccnc(Nc2cc(C3(C#N)CCNCC3)cc(N3CC(F)C3)n2)c1 [Example 34, 2′-(4-Cyano-pyridin-2-ylamino)-6′-(3-fluoro-azetidin-1-yl)-2,3,5,6-tetrahydro-1H-[4,4′]bipyridinyl-4-carbonitrile] | 1.9 |
| N#Cc1ccnc(Nc2cc(C3(C#N)CCNCC3)cc(N3CCC(F)(F)C3)n2)c1 [Example 31, 2′-(4-Cyano-pyridin-2-ylamino)-6′-(3,3-difluoro-pyrrolidin-1-yl)-2,3,5,6-tetrahydro-1H-[4,4′]bipyridinyl-4-carbonitrile] | 0.17 |
| N#CC1(c2cc(Nc3cc(C(F)F)ccn3)nc(N3CCC3)c2)CCOCC1 [Example 53, 4-[2-Azetidin-1-yl-6-(4-difluoro-methyl-pyridin-2-ylamino)-pyridin-4-yl]-tetrahydro-pyran-4-carbonitrile] | 24 |
| N#Cc1ccnc(Nc2cc(C3CCN(C4COC4)CC3)cc(N3CC(F)(F)C3)n2)c1 [Example 89, 2-[6-(3,3-Difluoro-azetidin-1-yl)-1′-oxetan-3-yl-1′,2′,3′,4′,5′,6′-hexahydro-[4,4′]bipyridinyl-2-ylamino]-isonicotinonitrile] | 8 |
| CC(=O)N1CCC(c2cc(Nc3cc(C(F)(F)F)ccn3)nc(N3CCC[C@H]3C)c2)CC1 [Example 141, 1-[2′-((R)-2-Methyl-pyrrolidin-1-yl)-6′-(4-trifluoromethyl-pyridin-2-ylamino)-3,4,5,6-tetrahydro-2H-[4,4′]bipyridinyl-1-yl]-ethanone] | 2 |
| N#Cc1ccnc(Nc2cc(C3(C#N)CCOCC3)cc(N3CC4CC4C3)n2)c1 (stereo not drawn) [Example 67, 2-[6-(3-Aza-bicyclo[3.1.0]hex-3-yl)-4-(4-cyano-tetrahydro-pyran-4-yl)-pyridin-2-ylamino]-isonicotinonitrile] | 0.4 |
| N#Cc1ccnc(Nc2cc(C3CCOCC3)cc(N3CC4(CCC4(F)F)C3)n2)c1 [Example 103, 2-[6-(5,5-Difluoro-2-aza-spiro[3.3]hept-2-yl)-4-(tetrahydro-pyran-4-yl)-pyridin-2-ylamino]-isonicotinonitrile] | 16 |
| N#Cc1ccnc(Nc2cc(C3CCOCC3)cc(Cl)n2)c1 [Example 78, 2-[6-Chloro-4-(tetrahydro-pyran-4-yl)-pyridin-2-ylamino]-isonicotinonitrile] | 3.1 |
| CC(=O)N1CCC(c2ccnc(Nc3cc(C#N)ccn3)c2)CC1 [Example 129, 2-(1′-Acetyl-1′,2′,3′,4′,5′,6′-hexahydro-[4,4′]bipyridinyl-2-ylamino)-isonicotinonitrile] | 510 |
| C[C@@H]1CCCN1c1cc(C2(C#N)CCN(C)CC2)cc(Nc2cc(C#N)ccn2)n1 [Example 33, 2′-(4-Cyano-pyridin-2-ylamino)-1-methyl-6′-((R)-2-methyl-pyrrolidin-1-yl)-2,3,5,6-tetrahydro-1H-[4,4′]bipyridinyl-4-carbonitrile] | 0.17 |
| CC(=O)N1CCC(c2cc(C)nc(Nc3cc(C(F)F)ccn3)c2)CC1 [Example 62, 1-[2′-(4-Difluoromethyl-pyridin-2-ylamino)-6′-methyl-3,4,5,6-tetrahydro-2H-[4,4′]bipyridinyl-1-yl]-ethanone] | 170 |
| FC(F)c1ccnc(Nc2cc(C3CCN(C4COC4)CC3)cc(N3CC4CC4C3)n2)c1 (stereo not drawn) [Example 50, [6-(3-Aza-bicyclo[3.1.0]hex-3-yl)-1′-oxetan-3-yl-1′,2′,3′,4′,5′,6′-hexahydro-[4,4′]bipyridinyl-2-yl]-(4-difluoromethyl-pyridin-2-yl)-amine] | 1 |
| C[C@@H]1CCCN1c1cc(C2(C#N)CCN(C3COC3)CC2)cc(Nc2cc(C#N)ccn2)n1 [Example 30, 2′-(4-Cyano-pyridin-2-ylamino)-6′-((R)-2-methyl-pyrrolidin-1-yl)-1-oxetan-3-yl-2,3,5,6-tetrahydro-1H-[4,4′]bipyridinyl-4-carbonitrile] | 0.17 |
| C[C@@H]1CCCN1c1cc(C2CCN(CCO)CC2)cc(Nc2cc(C(F)(F)F)ccn2)n1 [Example 140, 2-[6′-((R)-2-Methyl-pyrrolidin-1-yl)-2′-(4-trifluoromethyl-pyridin-2-ylamino)-3,4,5,6-tetrahydro-2H-[4,4′]bipyridinyl-1-yl]-ethanol] | 0.17 |
| N#Cc1ccnc(Nc2cc(C3CCN(C4COC4)CC3)cc(N3CC4CC4C3)n2)c1 (stereo not drawn) [Example 92, 2-[6-(3-Aza-bicyclo[3.1.0]hex-3-yl)-1′-oxetan-3-yl-1′,2′,3′,4′,5′,6′-hexahydro-[4,4′]bipyridinyl-2-ylamino]-isonicotinonitrile] | 0.7 |
| Cc1cc(C2CCN(C(=O)OC(C)(C)C)CC2)cc(Nc2cc(C#N)ccn2)n1 [Example 116, 2′-(4-Cyano-pyridin-2-ylamino)-6′-methyl-3,4,5,6-tetrahydro-2H-[4,4′]bipyridinyl-1-carboxylic acid tert-butyl ester] | 215 |
| CCc1cc(C2CCN(C(C)=O)CC2)cc(Nc2cc(C#N)ccn2)n1 [Example 60, 2-(1′-Acetyl-6-ethyl-1′,2′,3′,4′,5′,6′-hexahydro-[4,4′]bipyridinyl-2-ylamino)-isonicotinonitrile] | 28 |
| CC(=O)N1CCC(c2cc(Nc3cc(C#N)ccn3)nc(OC(C)C)c2)CC1 [Example 22, 2-(1′-Acetyl-6-isopropoxy-1′,2′,3′,4′,5′,6′-hexahydro-[4,4′]bipyridinyl-2-ylamino)-isonicotinonitrile] | 2.2 |
| Cn1cc(-c2cc(C3CCOCC3)cc(Nc3cc(OC(F)F)ccn3)n2)cn1 [Example 118, (4-Difluoromethoxy-pyridin-2-yl)-[6-(1-methyl-1H-pyrazol-4-yl)-4-(tetrahydro-pyran-4-yl)-pyridin-2-yl]-amine] | 4 |
